In this assay the target is T1, JerF (Sorangium cellulosum, UniProt A1YBT9).
T1 construct: codon-optimised full-length gene in pCOLD-I, N-terminal His6 tag, expressed in E. coli BL21 (DE3), cell-free extract (not purified)
As to the kind of experiment: HPLC-MS of O-methylated product after bioconversion with cell-free extract. The class given is biochemical. The following applies: 5 mM MgCl2, 0.25 mM substrate.

The values below come from article PMC6273487, “Characterisation of the Broadly-Specific O-Methyl-transferase JerF from the Late Stages of Jerangolid Biosynthesis” (Molecules, 2016).

T1 sequence (A1YBT9 entry or part of it): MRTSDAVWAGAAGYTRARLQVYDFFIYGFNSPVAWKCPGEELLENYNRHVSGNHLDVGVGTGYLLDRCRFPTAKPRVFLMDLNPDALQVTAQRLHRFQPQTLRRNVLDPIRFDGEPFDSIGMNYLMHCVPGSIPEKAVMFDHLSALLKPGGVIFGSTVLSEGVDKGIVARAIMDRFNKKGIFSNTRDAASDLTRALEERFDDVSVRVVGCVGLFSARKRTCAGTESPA

On to `C/C=C/C1CC(=O)C(C)C(=O)O1` (racemic) [rac-14d, (E)-3-Methyl-6-(prop-1-en-1-yl)dihydro-2H-pyran-2,4(3H)-dione], for which the “HPLC-MS of O-methylated product after bioconversion with cell-free extract” value (SAM tosylate 0.97 mM, 40 mM Tris HCl, pH 8.8, 28 °C, 16 h, empty-vector and heat-denatured lysate controls run) is listed as “rac-14d was almost completely converted into the respective O-methylated product mixture rac-15d”.

Turning to `CC(C)/C=C/C1CC(=O)C(C)C(=O)O1` (racemic) [rac-14e, (E)-3-Methyl-6-(3-methylbut-1-en-1-yl)dihydro-2H-pyran-2,4(3H)-dione], the “HPLC-MS of O-methylated product after bioconversion with cell-free extract” value (SAM tosylate 4.18 mM, 25 mM HEPES, pH 7.5, 28 °C, 20 h) was “Full conversion was reproducibly obtained for compounds rac-14b, rac-14c, rac-14e and rac-14f”.
